Measurements: publication PMC8775250, “Cryo-EM Structure of the Rhodobacter sphaeroides Light-Harvesting 2 Complex at 2.1 Å” (Biochemistry, 2021)

Biological target: T1, Rba. sphaeroides LH2 complex (light-harvesting 2 antenna, LH2 αβ) (Cereibacter sphaeroides, UniProt Q3J144+Q3J145)
T1 construct: gene pucA; native untagged complex purified from Rba. sphaeroides B7 membranes in LDAO; nonamer of αβ heterodimers; alpha N-terminal carboxymethionine; beta C-terminus Gly51
Test: cryo-EM structure ([…] Å)
Assay type: binding
Details: one carotenoid per αβ heterodimer (9 per nonamer); native bound pigment; pH 7.8, LDAO

T1 sequence (Q3J145 whole entry): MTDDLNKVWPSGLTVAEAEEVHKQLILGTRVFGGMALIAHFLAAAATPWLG
T1 sequence (Q3J144 1-50): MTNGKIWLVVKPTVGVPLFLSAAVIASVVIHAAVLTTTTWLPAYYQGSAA

**Q.** With `COC(C)(C)C/C=C/C(C)=C/C=C/C(C)=C/C=C/C(C)=C/C=C/C=C(C)/C=C/C=C(\C)CC/C=C(\C)CCC=C(C)C` [spheroidene] as the compound, how does the “cryo-EM structure (2.1 Å)” value read?
**A.** the carotenoid spheroidene adopts an all-trans conformation as it winds through the LH2 complex
